Source: patent US20170319562A1, “Compositions and Methods for Extended Therapy with Aminopyridines” (Acorda Therapeutics, Inc., priority 2009, published 2017)

Tests used:
[1] = Single oral dose of 14C-labeled 4-aminopyridine (1 mg/kg) in rats; conditions: for tissue-to-blood ratio: oral dose; for AUC / Cmax / Tmax / half-life: rat, plasma, po, 1 mg/kg
Experimental: (§1) Studies were performed in rats and dogs using “C-labeled 4-aminopyridine (1 mg/kg) given as a single oral gavage dose in solution.
In a single-dose study, rats were administered “C-labeled 4-aminopyridine (1 mg/kg) p.o. Three animals per time point were sacrificed 1, 3, 8, and 24 hours post-dose. Blood was collected and tissues were excised for determination of radioactivity.

[2] = Single oral dose of 14C-labeled 4-aminopyridine (1 mg/kg) in dogs; type: in vivo; conditions: dog, plasma, 1 mg/kg oral
Experimental: as §1

Nc1ccncc1 [^14C-4-Aminopyridine]
radioactivity in tissue, percentage of the dose ([1]; blood, one hour post-dose): 0.7% | radioactivity in tissue, percentage of the dose ([1]; carcass, 3 hours post-dose): 15.4% | radioactivity in tissue, percentage of the dose ([1]; carcass, one hour post-dose): 51% | tissue-to-blood ratio ([1]; cerebellum): 1.48 | tissue-to-blood ratio ([1]; cerebrum): 3.07 | AUC ([1]; female): 506 ± 63.3 ng·h/mL | Cmax ([1]; female): 168 ± 15.7 ng/g | Tmax ([1]; female): 0.5 h | half-life ([1]; female): 1.4 ± 0.17 h | radioactivity in tissue, percentage of the dose ([1]; kidney, one hour post-dose): 1.6% | radioactivity in tissue, percentage of the dose ([1]; liver, one hour post-dose): 2.6% | AUC ([1]; male): 498 ± 17.6 ng·h/mL | Cmax ([1]; male): 189 ± 20.2 ng/g | Tmax ([1]; male): 1 h | half-life ([1]; male): 1.1 ± 0.04 h | dose accounted for in total ([1]; one hour post-dose): 58.3% | AUC ([2]; female, females): 1920 ± 150 ng·h/mL | Cmax ([2]; female, females): 635 ± 103 ng/g | Tmax ([2]; female, females): 0.8 ± 0.3 h | half-life ([2]; female, females): 1.8 ± 0.04 h | AUC ([2]; male, males): 2030 ± 406 ng·h/mL | Cmax ([2]; male, males): 574 ± 123 ng/g | Tmax ([2]; male, males): 1 h | half-life ([2]; male, males): 2.1 ± 0.14 h
